Laboratory results published in patent US20250195521A1 (Revolution Medicines, Inc., priority 2020, published 2025).
Like-named read-outs stand apart in the source and are kept apart here.

Tests used:
[1] = test system: K-Ras G12C (NCI-H358 cells); test: Potency assay: pERK in NCI-H358 cells; format: cell-based, human; settings: Homo sapiens, read-out: pERK EC50 (H358 KRAS G12C)
Procedure, shortened: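 Cells plated the day before were exposed for 4 h at 37° C, 5% CO2 to a 10-point, 3-fold DMSO dilution series (10 mM top stock), in duplicate. Phospho-ERK was read by AlphaLISA SureFire Ultra or by In-Cell Western with DRAQ5 DNA stain, and IC50 came from a 4-parameter sigmoidal fit.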

[2] = test system: NCI-H358 cells (K-Ras G12C); test: CellTiter-Glo cell viability, NCI-H358; format: cell-based, human; settings: Homo sapiens, NCI-H358, 120 h, read-out: H358 Cell Viability IC50
Procedure, shortened: (§1)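 Viability is read as luminescence after five days of compound exposure, with plates first equilibrated to room temperature for roughly 30 minutes. Each signal is expressed as a percentage of the mean DMSO control, and curves are fitted by four-parameter logistic regression.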

[3] = test system: Capan-1 cells (K-Ras G12V); test: CellTiter-Glo cell viability, Capan-1; format: cell-based, human; settings: Homo sapiens, CAPAN-1, 120 h, read-out: Capan-1 Cell Viability IC50
Procedure, shortened: as §1

NRAS Q61R = NRAS Q61R (Homo sapiens (Human), UniProt P01111+P62937, Q61R); test: Ras-Raf disruption/FRET/MOA assay (BRAF RBD, Cyclophilin A); format: biochemical
Sequence of NRAS Q61R (P01111 whole entry Q61R): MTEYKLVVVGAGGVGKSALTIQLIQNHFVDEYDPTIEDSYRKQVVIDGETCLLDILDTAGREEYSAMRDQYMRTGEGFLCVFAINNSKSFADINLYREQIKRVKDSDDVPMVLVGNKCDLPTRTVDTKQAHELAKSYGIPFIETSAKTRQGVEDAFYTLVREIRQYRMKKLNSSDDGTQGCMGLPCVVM
Sequence of NRAS Q61R (P62937 whole entry): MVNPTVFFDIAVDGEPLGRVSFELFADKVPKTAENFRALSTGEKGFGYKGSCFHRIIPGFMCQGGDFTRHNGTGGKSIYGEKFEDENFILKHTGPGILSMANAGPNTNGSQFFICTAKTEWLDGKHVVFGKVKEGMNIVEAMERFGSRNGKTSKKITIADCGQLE
Procedure, shortened: (§2)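 TR-FRET read after 1.5 h with 10 nM anti-His Eu-W1024 and 50 nM anti-GST APC, following 3 h at 25 °C of GMPPNP-loaded His6-Ras (12.5 nM), GST-BRAF RBD (50 nM) and Cyclophilin A (25 μM) with compound from 30 μM final, 10 points, 3-fold. IC50 reported; pH 7.3 HEPES, 100 mM NaCl.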

KRAS G12D = KRAS G12D (Homo sapiens (Human), UniProt P01116+P62937, G12D); test: as above; format: biochemical; settings: read-out: KRAS G12D FRET IC50
Sequence of KRAS G12D (P01116 other isoform, or with tags, fused parts or gaps G12D): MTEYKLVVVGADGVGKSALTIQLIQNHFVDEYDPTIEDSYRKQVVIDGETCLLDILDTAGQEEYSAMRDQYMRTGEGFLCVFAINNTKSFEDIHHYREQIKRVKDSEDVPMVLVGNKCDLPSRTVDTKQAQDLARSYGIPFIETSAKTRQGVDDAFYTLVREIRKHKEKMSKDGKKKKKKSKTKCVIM
Sequence of KRAS G12D (P62937 whole entry): as the sequence (P62937 whole entry) above
Procedure, shortened: (§3)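 His6-K-Ras-GMPPNP (12.5 nM), GST-BRAF RBD (50 nM) and tagless Cyclophilin A (25 μM) were combined in 25 mM HEPES pH 7.3 with 100 mM NaCl, 5 mM MgCl2, 0.1% BSA and 0.002% Tween20, with compound as a 10-point 3-fold series from 30 μM final, then incubated 3 h at 25° C.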

NRAS WT = NRAS WT (Homo sapiens (Human), UniProt P01111+P62937); test: as above; format: biochemical
Sequence of NRAS WT (P01111 whole entry): as the sequence (P01111 whole entry Q61R) above, with R61Q counted along it
Sequence of NRAS WT (P62937 whole entry): as the sequence (P62937 whole entry) above
Procedure, shortened: as §2

KRAS G12C = KRAS G12C (Homo sapiens (Human), UniProt P01116+P62937, G12C); test: as above; format: biochemical; settings: read-out: KRAS G12C FRET IC50
Sequence of KRAS G12C (P01116-2 other isoform, or with tags, fused parts or gaps G12C): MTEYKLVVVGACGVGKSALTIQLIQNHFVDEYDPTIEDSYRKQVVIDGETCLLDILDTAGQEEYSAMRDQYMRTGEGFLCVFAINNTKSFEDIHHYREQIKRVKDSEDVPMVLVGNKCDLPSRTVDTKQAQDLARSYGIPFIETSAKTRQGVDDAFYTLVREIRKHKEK
Sequence of KRAS G12C (P62937 whole entry): as the sequence (P62937 whole entry) above
Procedure, shortened: as §3

NRAS G12C = NRAS G12C (Homo sapiens (Human), UniProt P01111+P62937, G12C); test: as above; format: biochemical; settings: read-out: NRAS G12C FRET data IC50
Sequence of NRAS G12C (P01111 whole entry G12C): as the sequence (P01111 whole entry Q61R) above, with G12C, R61Q counted along it
Sequence of NRAS G12C (P62937 whole entry): as the sequence (P62937 whole entry) above
Procedure, shortened: as §2

KRAS G13C = KRAS G13C (Homo sapiens (Human), UniProt P01116+P62937, G13C); test: as above; format: biochemical; settings: read-out: KRAS G13C FRET IC50
Sequence of KRAS G13C (P01116 other isoform, or with tags, fused parts or gaps G13C): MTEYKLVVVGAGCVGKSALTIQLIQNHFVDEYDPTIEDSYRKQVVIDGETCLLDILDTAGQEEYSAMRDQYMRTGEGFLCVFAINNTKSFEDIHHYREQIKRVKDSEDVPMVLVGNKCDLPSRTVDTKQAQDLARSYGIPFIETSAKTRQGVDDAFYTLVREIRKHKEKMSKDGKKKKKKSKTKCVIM
Sequence of KRAS G13C (P62937 whole entry): as the sequence (P62937 whole entry) above
Procedure, shortened: as §3

KRAS WT = KRAS WT (Homo sapiens (Human), UniProt P01116+P62937); test: as above; format: biochemical; settings: read-out: KRAS WT FRET data IC50
Sequence of KRAS WT (P01116 other isoform, or with tags, fused parts or gaps): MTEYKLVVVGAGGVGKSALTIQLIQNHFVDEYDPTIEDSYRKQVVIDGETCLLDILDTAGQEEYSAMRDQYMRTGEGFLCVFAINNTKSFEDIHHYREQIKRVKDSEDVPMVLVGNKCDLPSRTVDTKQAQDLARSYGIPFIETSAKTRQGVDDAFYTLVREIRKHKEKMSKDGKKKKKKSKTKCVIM
Sequence of KRAS WT (P62937 whole entry): as the sequence (P62937 whole entry) above
Procedure, shortened: as §3

KRAS G12V = KRAS G12V (Homo sapiens (Human), UniProt P01116+P62937, G12V); test: as above; format: biochemical; settings: read-out: KRAS G12V FRET IC50
Sequence of KRAS G12V (P01116 other isoform, or with tags, fused parts or gaps G12V): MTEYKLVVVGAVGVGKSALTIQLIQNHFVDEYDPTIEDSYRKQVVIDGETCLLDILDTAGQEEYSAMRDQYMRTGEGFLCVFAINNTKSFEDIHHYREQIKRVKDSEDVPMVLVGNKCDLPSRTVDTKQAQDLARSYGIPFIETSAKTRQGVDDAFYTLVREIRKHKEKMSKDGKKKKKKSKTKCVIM
Sequence of KRAS G12V (P62937 whole entry): as the sequence (P62937 whole entry) above
Procedure, shortened: as §3

KRAS G12S = KRAS G12S (Homo sapiens (Human), UniProt P01116+P62937, G12S); test: as above; format: biochemical; settings: read-out: KRAS G12S FRET IC50
Sequence of KRAS G12S (P01116 other isoform, or with tags, fused parts or gaps G12S): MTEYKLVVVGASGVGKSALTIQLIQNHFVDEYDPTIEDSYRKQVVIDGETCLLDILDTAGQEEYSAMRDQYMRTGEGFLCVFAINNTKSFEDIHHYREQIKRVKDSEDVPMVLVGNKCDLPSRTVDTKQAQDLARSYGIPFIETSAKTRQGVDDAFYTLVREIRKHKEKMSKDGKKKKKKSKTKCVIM
Sequence of KRAS G12S (P62937 whole entry): as the sequence (P62937 whole entry) above
Procedure, shortened: as §3

KRAS Q61H = KRAS Q61H (Homo sapiens (Human), UniProt P01116+P62937, Q61H); test: as above; format: biochemical
Sequence of KRAS Q61H (P01116 other isoform, or with tags, fused parts or gaps Q61H): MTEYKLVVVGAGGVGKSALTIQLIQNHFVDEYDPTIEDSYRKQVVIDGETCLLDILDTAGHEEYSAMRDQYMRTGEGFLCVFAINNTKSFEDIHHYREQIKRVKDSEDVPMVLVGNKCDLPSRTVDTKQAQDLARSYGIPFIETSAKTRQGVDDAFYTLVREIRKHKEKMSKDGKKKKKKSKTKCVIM
Sequence of KRAS Q61H (P62937 whole entry): as the sequence (P62937 whole entry) above
Procedure, shortened: as §3

KRAS G13D = KRAS G13D (Homo sapiens (Human), UniProt P01116+P62937, G13D); test: as above; format: biochemical; settings: read-out: KRAS G13D FRET data IC50
Sequence of KRAS G13D (P01116 other isoform, or with tags, fused parts or gaps G13D): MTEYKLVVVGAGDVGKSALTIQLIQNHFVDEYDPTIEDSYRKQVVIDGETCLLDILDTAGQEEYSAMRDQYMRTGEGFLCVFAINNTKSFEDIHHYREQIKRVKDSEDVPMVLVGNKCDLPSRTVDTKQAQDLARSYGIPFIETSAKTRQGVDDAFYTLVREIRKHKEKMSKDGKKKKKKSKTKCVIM
Sequence of KRAS G13D (P62937 whole entry): as the sequence (P62937 whole entry) above
Procedure, shortened: as §3

EC50 ([1]; NCI-H358 cells, 4 hours) [nM] | IC50 ([2]; K-Ras G12C, 5-day treatment) [nM] | IC50 (NRAS Q61R) [nM] | IC50 (KRAS G12D) [nM] | IC50 (NRAS WT) [nM] | IC50 (KRAS G12C) [nM] | IC50 (NRAS G12C) [nM] | IC50 (KRAS G13C) [nM] | IC50 (KRAS WT) [nM] | IC50 (KRAS G12V) [nM] | IC50 (KRAS G12S) [nM] | IC50 (KRAS Q61H) [nM] | IC50 (KRAS G13D) [nM] | SMILES | IC50 ([3]; K-Ras G12V, 5-day treatment) [nM] | EC50 ([1]; NCI-H358, 4 h) [nM] | IC50 [2] [nM] | IC50 [3] [nM]
< 5000 | 10 to 100 | 100 to 1000 | 100 to 1000 | 100 to 1000 | 10 to 100 | 10 to 100 | 100 to 1000 | 100 to 1000 | 100 to 1000 | 100 to 1000 | 10 to 100 | 100 to 1000 | CCn1c(-c2cccnc2[C@H](C)OC)c2c3cc(ccc31)-c1csc(n1)C[C@H](NC(=O)[C@H](C(C)C)N(C)C(=O)N1CC(S(C)(=O)=O)C1)C(=O)N1CCC[C@H](N1)C(=O)OCC(C)(C)C2 [Compound A383] | 10 to 100 |  |  | 
< 5000 | 10 to 100 | 100 to 1000 | 1000 to 10000 | 100 to 1000 | 100 to 1000 | 100 to 1000 | 100 to 1000 | 100 to 1000 | 100 to 1000 | 100 to 1000 | 100 to 1000 | 100 to 1000 | CCn1c(-c2cccnc2[C@H](C)OC)c2c3cc(ccc31)-c1csc(n1)C[C@H](NC(=O)[C@H](C(C)C)N(C)C(=O)N1C[C@@H]3OCCN(C)[C@H]3C1)C(=O)N1CCC[C@H](N1)C(=O)OCC(C)(C)C2 [Compound A445] | 10 to 100 |  |  | 
< 5000 | 10 to 100 | 100 to 1000 | 100 to 1000 | 10 to 100 | 10 to 100 | 10 to 100 | 100 to 1000 | 10 to 100 | 100 to 1000 | 10 to 100 | 10 to 100 | 100 to 1000 | CCn1c(-c2cccnc2[C@H](C)OC)c2c3cc(ccc31)-c1csc(n1)C[C@H](NC(=O)[C@H](C(C)C)N(C)C(=O)N1CCCC[C@H](N(C)C)C1)C(=O)N1CCC[C@H](N1)C(=O)OCC(C)(C)C2 [Compound A491] | 10 to 100 |  |  | 
< 5000 | 10 to 100 | 100 to 1000 | 1000 to 10000 | 100 to 1000 | 100 to 1000 | 100 to 1000 | 100 to 1000 | 100 to 1000 | 100 to 1000 | 100 to 1000 | 100 to 1000 | 1000 to 10000 | CCn1c(-c2cccnc2[C@H](C)OC)c2c3cc(ccc31)-c1csc(n1)C[C@H](NC(=O)[C@H](C(C)C)N(C)C(=O)N1CC3(CC(N(C)C4COC4)C3)C1)C(=O)N1CCC[C@H](N1)C(=O)OCC(C)(C)C2 [Compound A511] | 10 to 100 |  |  | 

SMILES | EC50 ([1]; NCI-H358 cells, 4 hours) [nM] | IC50 ([2]; K-Ras G12C, 5-day treatment) [nM] | IC50 (NRAS Q61R) [nM] | IC50 (KRAS G12D) [nM] | IC50 (NRAS WT) [nM] | IC50 (KRAS G12C) [nM] | IC50 (NRAS G12C) [nM] | IC50 (KRAS G13C) [nM] | IC50 (KRAS WT) [nM] | IC50 (KRAS G12V) [nM] | IC50 (KRAS G12S) [nM] | IC50 (KRAS Q61H) [nM] | IC50 (KRAS G13D) [nM] | IC50 ([3]; K-Ras G12V, 5-day treatment) [nM] | EC50 ([1]; NCI-H358, 4 h) [nM] | IC50 [2] [nM] | IC50 [3] [nM]
CCn1c(-c2cccnc2[C@H](C)OC)c2c3cc(ccc31)-c1csc(n1)C[C@H](NC(=O)[C@H](C(C)C)N(C)C(=O)N1C3COCC1C3)C(=O)N1CCC[C@H](N1)C(=O)OCC(C)(C)C2 [Compound A540] |  |  | 100 to 1000 | 1000 to 10000 | 100 to 1000 | 10 to 100 | 10 to 100 | 100 to 1000 | 100 to 1000 | 100 to 1000 | 100 to 1000 | 10 to 100 | 100 to 1000 |  | < 5000 | 10 to 100 | 10 to 100
